Experimental data as given in patent publication US20240269109A1 (STICHTING MEDISCHE KLINIEK VELSEN, priority 2021, published 2024).

Experiments:
[1] = high doses for local anesthesia; cited from earlier work
[2] = off-label patient trial, oromucosal/sublingual formulation; format: in vivo, human
Procedure: The formulation of the invention was used “off-label” to treat a number of patients to determine its effect as set out in Example 2.
In the Netherlands, 22 patients were treated with the formulation of Example 1a as follows: […]
10 patients had COVID-19 symptoms (and were positive and were seen by their general practitioner). All 10 patients presented with early signs of respiratory distress; tachypnea (more than 30 breaths per minute), high fever and dry cough and a decreased Sp02<90.
6 patients had post-COVID respiratory complaints. They were experiencing long-term complaints, ranging from coughing, fatigue and shortness of breath to anxiety and physical limitations.
6 patients suffered with various autoimmune diseases as follows: • 1 patient had rheumatoid arthritis. • 1 patient had scleroderma; • 1 patient had dermatomyositis; • 1 patient had morbus Parkinson; • 2 patients had psoriasis.
All patients were given the formulation as described in Example 1a above, up to 6 times a day, for up to 2 weeks.

CCN(CC)CC(=O)Nc1c(C)cccc1C [lidocaine]
dose at which methemoglobinemia can occur [1]: 4-5 mg/kg bodyweight
response of COVID-19 patients with early signs of respiratory distress ([2]; 10 patients, sublingual): responded well
effective adult unit dose ([2]; delivered oromucosally or sublingually, 4-6 times a day): 60 to 100 mg
